The results in this text go back to patent US10925876B2, “Methods for using triazolo-pyrazinyl soluble guanylate cyclase activators in fibrotic disorders” (Merck Sharp & Dohme Corp., priority 2016, dated 2021).

For the experiment, the target named is T1, sGC α1/β1 heterodimer (Homo sapiens, UniProt Q02108+Q02153).
T1 construct: expressed in transfected cells
T1 sequence (Q02108 1-690): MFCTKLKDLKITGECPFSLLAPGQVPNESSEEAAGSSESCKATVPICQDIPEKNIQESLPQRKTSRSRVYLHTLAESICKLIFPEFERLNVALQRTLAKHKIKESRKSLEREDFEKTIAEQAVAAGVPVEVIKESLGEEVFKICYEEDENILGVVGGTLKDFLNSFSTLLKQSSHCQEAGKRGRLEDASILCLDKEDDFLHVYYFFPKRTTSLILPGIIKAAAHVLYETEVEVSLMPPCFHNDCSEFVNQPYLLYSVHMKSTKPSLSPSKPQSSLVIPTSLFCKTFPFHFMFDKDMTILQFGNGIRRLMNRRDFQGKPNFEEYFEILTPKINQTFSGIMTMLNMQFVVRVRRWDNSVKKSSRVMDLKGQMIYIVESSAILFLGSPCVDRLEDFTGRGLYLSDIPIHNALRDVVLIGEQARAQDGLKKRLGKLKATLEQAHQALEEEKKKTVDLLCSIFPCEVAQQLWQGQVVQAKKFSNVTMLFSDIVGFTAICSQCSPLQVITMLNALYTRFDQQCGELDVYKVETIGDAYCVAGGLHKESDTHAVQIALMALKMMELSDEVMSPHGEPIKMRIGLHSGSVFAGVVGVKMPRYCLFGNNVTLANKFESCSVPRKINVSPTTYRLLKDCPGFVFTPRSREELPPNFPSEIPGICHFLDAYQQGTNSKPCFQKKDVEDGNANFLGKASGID
T1 sequence (Q02153 1-619): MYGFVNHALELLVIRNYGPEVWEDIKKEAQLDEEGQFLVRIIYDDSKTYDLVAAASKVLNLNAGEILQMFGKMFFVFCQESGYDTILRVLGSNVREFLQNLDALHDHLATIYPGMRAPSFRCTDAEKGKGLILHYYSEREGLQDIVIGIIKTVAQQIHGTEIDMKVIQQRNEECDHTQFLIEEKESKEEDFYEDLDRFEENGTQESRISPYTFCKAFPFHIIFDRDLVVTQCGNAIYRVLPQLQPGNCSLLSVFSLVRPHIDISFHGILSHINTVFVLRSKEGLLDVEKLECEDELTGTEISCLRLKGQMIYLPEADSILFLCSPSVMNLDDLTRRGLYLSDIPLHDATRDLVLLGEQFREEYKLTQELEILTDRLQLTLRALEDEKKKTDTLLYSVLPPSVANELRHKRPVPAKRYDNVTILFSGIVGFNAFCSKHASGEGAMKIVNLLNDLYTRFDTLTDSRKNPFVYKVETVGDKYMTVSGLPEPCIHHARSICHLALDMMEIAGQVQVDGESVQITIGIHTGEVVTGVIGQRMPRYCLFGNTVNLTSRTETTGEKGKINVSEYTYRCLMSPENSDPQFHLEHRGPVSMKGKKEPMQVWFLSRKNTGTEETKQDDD
Nature of the experiment: Cell-Based sGC Functional Assay (CASA Assay), cGMP generation in CHO-K1/sGC cells.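 Note: reference Compound A is a published heme-dependent sGC activator.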 As to conditions: maximum cGMP production of Compound A set to 100% activation, read-out: % Act. (percent activation relative to Compound A). The method, boiled down:
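CHO-K1 cells stably expressing human sGC α1/β1, 4×10^5/mL in EBSS with 5 mM MgCl2, 10 mM HEPES, 0.05% BSA, 0.5 mM IBMX, 2.5% DMSO; compounds 1 h at 37 °C ± 1 μM DETA-NO. cGMP by HTRF, expressed as % of reference Compound A maximum; IP and max fold induction from 4P fit.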

As to `Nc1nc(-c2cn3ncnc3c(CCC(F)(F)F)n2)nc2c1C(c1ccc(C(F)(F)F)cn1)(C1CC1)C(=O)N2` (centres unmarked) [Example 80A, 4-amino-5-cyclopropyl-5-(5-(trifluoromethyl)pyridin-2-yl)-2-(8-(3,3,3-trifluoropropyl)-[1,2,4]triazolo[1,5-a]pyrazin-6-yl)-5H-pyrrolo[2,3-d]pyrimidin-6(7H)-one], the Emax is 115%.
The result for `CC1(c2ccc(F)cn2)C(=O)Nc2nc(-c3cn4ncnc4c(CCC(F)(F)F)n3)nc(N)c21` (centres unmarked) [Example 81B, 4-amino-5-(5-fluoropyridin-2-yl)-5-methyl-2-(8-(3,3,3-trifluoropropyl)-[1,2,4]triazolo[1,5-a]pyrazin-6-yl)-5H-pyrrolo[2,3-d]pyrimidin-6(7H)-one] reads 115%; that for `Nc1nc(-c2cn3ncnc3c(CCC(F)(F)F)n2)nc2c1C(c1ccc(Cl)cn1)(C1CC1)C(=O)N2` (centres unmarked) [Example 82A, 4-amino-5-(5-chloropyridin-2-yl)-5-cyclopropyl-2-(8-(3,3,3-trifluoropropyl)-[1,2,4]triazolo[1,5-a]pyrazin-6-yl)-5H-pyrrolo[2,3-d]pyrimidin-6(7H)-one], 125%; that for `Nc1nc(-c2cn3ncnc3c(CCC(F)(F)F)n2)nc2c1C(c1ccc(F)c(F)c1)(C1CC1)C(=O)N2` (centres unmarked) [Example 83A, 4-amino-5-cyclopropyl-5-(3,4-difluorophenyl)-2-(8-(3,3,3-trifluoropropyl)-[1,2,4]triazolo[1,5-a]pyrazin-6-yl)-5H-pyrrolo[2,3-d]pyrimidin-6(7H)-one], 100%.
With `CC1(c2ccc(F)c(F)c2)C(=O)Nc2nc(-c3cn4ncnc4c(CCC(F)(F)F)n3)nc(N)c21` (centres unmarked) [Example 84B, 4-amino-5-(3,4-difluorophenyl)-5-methyl-2-(8-(3,3,3-trifluoropropyl)-[1,2,4]triazolo[1,5-a]pyrazin-6-yl)-5H-pyrrolo[2,3-d]pyrimidin-6(7H)-one], the Emax stood at 101%.
In the case of `COc1cccc(Cc2nc(-c3nc(N)c4c(n3)NC(=O)[C@@]4(C)c3ccc(F)cc3)cn3ncnc23)c1` [Example 86B, (S)-4-amino-5-(4-fluorophenyl)-2-(8-(3-methoxybenzyl)-[1,2,4]triazolo[1,5-a]pyrazin-6-yl)-5-methyl-5H-pyrrolo[2,3-d]pyrimidin-6(7H)-one], the Emax worked out at 126%.
As to `Cc1nc2c(Cc3ccc(F)cc3)nc(-c3nc(N)c4c(n3)NC(=O)[C@@]4(C)c3ccc(F)cc3)cn2n1` [Example 87B, (S)-4-amino-2-(8-(4-fluorobenzyl)-2-methyl-[1,2,4]triazolo[1,5-a]pyrazin-6-yl)-5-(4-fluorophenyl)-5-methyl-5H-pyrrolo[2,3-d]pyrimidin-6(7H)-one], the Emax is 138%.
Consider `Cc1nc2c(CCC(F)(F)C(F)(F)F)nc(-c3nc(N)c4c(n3)NC(=O)C4(C)c3ccc(F)cn3)cn2n1` (centres unmarked) [Example 89B, 4-amino-5-(5-fluoropyridin-2-yl)-5-methyl-2-(2-methyl-8-(3,3,4,4,4-pentafluorobutyl)-[1,2,4]triazolo[1,5-a]pyrazin-6-yl)-5H-pyrrolo[2,3-d]pyrimidin-6(7H)-one], for which the Emax was found to be 109%.
The result for `Cc1nc2c(CCC(F)(F)C(F)(F)F)nc(-c3nc(N)c4c(n3)NC(=O)C4(C)c3ccc(Cl)c(F)c3)cn2n1` (centres unmarked) [Example 90B, 4-amino-5-(4-chloro-3-fluorophenyl)-5-methyl-2-(2-methyl-8-(3,3,4,4,4-pentafluorobutyl)-[1,2,4]triazolo[1,5-a]pyrazin-6-yl)-5H-pyrrolo[2,3-d]pyrimidin-6(7H)-one] reads 135%; that for `CCCc1nc(-c2nc(N)c3c(n2)NC(=O)[C@@]3(C)c2ccc(F)cc2)cn2nc(C)nc12` [Example 91A, (S)-4-amino-5-(4-fluorophenyl)-5-methyl-2-(2-methyl-8-propyl-[1,2,4]triazolo[1,5-a]pyrazin-6-yl)-5,7-dihydro-6H-pyrrolo[2,3-d]pyrimidin-6-one], 105%; that for `CCCc1nc(-c2nc(N)c3c(n2)NC(=O)C3(C)c2ccc(F)cn2)cn2nc(C)nc12` (centres unmarked) [Example 92B, 4-amino-5-(5-fluoropyridin-2-yl)-5-methyl-2-(2-methyl-8-propyl-[1,2,4]triazolo[1,5-a]pyrazin-6-yl)-5H-pyrrolo[2,3-d]pyrimidin-6(7H)-one], 167%.
The result for `CCCc1nc(-c2nc(N)c3c(n2)NC(=O)C3(C)c2ccc(Cl)cc2)cn2nc(C)nc12` (centres unmarked) [Example 93A, 4-amino-5-(4-chlorophenyl)-5-methyl-2-(2-methyl-8-propyl-[1,2,4]triazolo[1,5-a]pyrazin-6-yl)-5H-pyrrolo[2,3-d]pyrimidin-6(7H)-one] reads 159%.
The result for `Nc1nc(-c2cn3ncnc3c(CCC(F)(F)C(F)(F)F)n2)nc2c1C(c1cn(C3CC3)nn1)(C1CC1)C(=O)N2` (centres unmarked) [Example 96B, 4-amino-5-cyclopropyl-5-(1-cyclopropyl-1H-1,2,3-triazol-4-yl)-2-(8-(3,3,4,4,4-pentafluorobutyl)-[1,2,4]triazolo[1,5-a]pyrazin-6-yl)-5H-pyrrolo[2,3-d]pyrimidin-6(7H)-one] reads 108%; that for `CC1(c2nnc(C3CC3)o2)C(=O)Nc2nc(-c3cn4ncnc4c(CCCC(F)(F)F)n3)nc(N)c21` (centres unmarked) [Example 99A, 4-amino-5-(5-cyclopropyl-1,3,4-oxadiazol-2-yl)-5-methyl-2-(8-(4,4,4-trifluorobutyl)-[1,2,4]triazolo[1,5-a]pyrazin-6-yl)-5H-pyrrolo[2,3-d]pyrimidin-6(7H)-one], 113%.
Regarding `CC1(c2nnc(C(F)F)o2)C(=O)Nc2nc(-c3cn4ncnc4c(CCCC(F)(F)F)n3)nc(N)c21` (centres unmarked) [Example 100A, 4-amino-5-(5-(difluoromethyl)-1,3,4-oxadiazol-2-yl)-5-methyl-2-(8-(4,4,4-trifluorobutyl)-[1,2,4]triazolo[1,5-a]pyrazin-6-yl)-5H-pyrrolo[2,3-d]pyrimidin-6(7H)-one], the Emax is 184%.
The result for `CC1(c2nnc(C(F)(F)F)o2)C(=O)Nc2nc(-c3cn4ncnc4c(CCCC(F)(F)F)n3)nc(N)c21` (centres unmarked) [Example 101A, 4-amino-5-methyl-2-(8-(4,4,4-trifluorobutyl)-[1,2,4]triazolo[1,5-a]pyrazin-6-yl)-5-(5-(trifluoromethyl)-1,3,4-oxadiazol-2-yl)-5H-pyrrolo[2,3-d]pyrimidin-6(7H)-one] reads 154%; that for `CCCCc1nc(-c2nc(N)c3c(n2)NC(=O)C3(C)c2nnc(C(F)(F)F)o2)cn2ncnc12` (centres unmarked) [Example 102A, 4-amino-2-(8-butyl-[1,2,4]triazolo[1,5-a]pyrazin-6-yl)-5-methyl-5-(5-(trifluoromethyl)-1,3,4-oxadiazol-2-yl)-5H-pyrrolo[2,3-d]pyrimidin-6(7H)-one], 132%.
The result for `Nc1nc(-c2cn3ncnc3c(CCCC(F)(F)F)n2)nc2c1C(c1nnc(C3(F)CC3)o1)(C1CC1)C(=O)N2` (centres unmarked) [Example 108A, 4-amino-5-cyclopropyl-5-(5-(1-fluorocyclopropyl)-1,3,4-oxadiazol-2-yl)-2-(8-(4,4,4-trifluorobutyl)-[1,2,4]triazolo[1,5-a]pyrazin-6-yl)-5H-pyrrolo[2,3-d]pyrimidin-6(7H)-one] reads 107%.
`CC1(c2nnc(C3(F)CC3)o2)C(=O)Nc2nc(-c3cn4ncnc4c(CCCC(F)(F)F)n3)nc(N)c21` (centres unmarked) [Example 109A, 4-amino-5-(5-(1-fluorocyclopropyl)-1,3,4-oxadiazol-2-yl)-5-methyl-2-(8-(4,4,4-trifluorobutyl)-[1,2,4]triazolo[1,5-a]pyrazin-6-yl)-5H-pyrrolo[2,3-d]pyrimidin-6(7H)-one]: the Emax was found to be 92%.
Turning to `CC1(c2ccc(O)cn2)C(=O)Nc2nc(-c3cn4ncnc4c(CCCC(F)(F)F)n3)nc(N)c21` (centres unmarked) [Example 111A, 4-amino-5-(5-hydroxypyridin-2-yl)-5-methyl-2-(8-(4,4,4-trifluorobutyl)-[1,2,4]triazolo[1,5-a]pyrazin-6-yl)-5H-pyrrolo[2,3-d]pyrimidin-6(7H)-one], the Emax amounted to 75%.
